Publication PMC9926489, “Chemical Optimization of Selective Pseudomonas aeruginosa LasB Elastase Inhibitors and Their Impact on LasB-Mediated Activation of IL-1β in Cellular and Animal Infection Models” (ACS Infectious Diseases, 2023)

What was measured:
MMP-1 = target: T1, MMP-1 (Homo sapiens, UniProt P03956); assay: MMP-1 selectivity assay; assay type: biochemical; settings: human MMP-1
T1 sequence (P03956 100-469): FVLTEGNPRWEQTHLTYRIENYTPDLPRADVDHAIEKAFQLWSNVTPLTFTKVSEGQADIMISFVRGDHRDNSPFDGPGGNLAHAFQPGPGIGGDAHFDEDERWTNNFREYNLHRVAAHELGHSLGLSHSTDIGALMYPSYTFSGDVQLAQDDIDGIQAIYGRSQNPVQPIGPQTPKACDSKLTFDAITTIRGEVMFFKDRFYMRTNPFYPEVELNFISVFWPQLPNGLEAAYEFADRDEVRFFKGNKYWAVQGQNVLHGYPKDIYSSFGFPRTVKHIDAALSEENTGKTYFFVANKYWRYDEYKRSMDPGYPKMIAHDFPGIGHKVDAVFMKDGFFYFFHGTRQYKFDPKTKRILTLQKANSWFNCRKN
Description: Selectivity of compound inhibition was evaluated against other proteases at concentrations between 0.4 and 200 μM. Activity against rabbit angiotensin-converting enzyme (ACE, Sigma) was assessed using 10 μM fluorogenic substrate Abz-Phe-Arg-Lys(Dnp)-P (Enzo Life Sciences) in 100 mM Tris-HCl pH 7, 50 mM NaCl, 10 μM Zn SO4. Activity against human matrix metalloproteases (MMP)-2 and MMP-9 was assessed in 50 mM HEPES pH 7.5, 10 mM CaCl2, 0.01% Triton X-100 using 4 μM fluorogenic substrate Mca-Pro-Leu-Gly-Leu-Dpa-Ala-Arg-NH2 (Enzo Life Sciences). Activity against MMP-1 and MMP-13 was assessed in 25 mM HEPES pH 7.5, 100 mM NaCl, 100 mM CaCl2, 0.0005% Brij using 7.5 μM fluorogenic substrate Mca-Lys-Pro-Leu-Gly-Leu-Dpa-Ala-Arg-NH2 (Sigma) for MMP-1 and 1.25 μM fluorogenic substrate Mca-Pro-Cha-Gly-Nva-His-Ala-Dpa-NH2 (Millipore) for MMP-13. Activity against human neutrophil elastase (HNE, Enzo Life Sciences) was assessed in 100 mM HEPES pH 7.5, 500 mM NaCl, 0.01% of Triton X-100 using 100 μM fluorogenic substrate MeOSuc-AAPV-AMC (Enzo Life Sciences).

[1] = Plasma protein binding by equilibrium dialysis; assay type: in vitro ADME; settings: mouse plasma, 10 μM compound; read-out: PPB (mouse) % bound (converted)
Description: Mouse plasma protein binding (PPB) was determined by equilibrium dialysis with 10 μM compound over 4 h at 37 °C. Compound recoveries were determined by HPLC-MS/MS.

purified LasB = target: T2, purified LasB (Pseudomonas aeruginosa, UniProt P14756); assay: Inhibition of LasB-mediated proteolysis of pro-IL-1β-derived peptide Sub115; assay type: biochemical, P. aeruginosa
T2 construct: The mature LasB protein is a 33 kDa metalloprotease, which is secreted from P. aeruginosa; host or cells: P. aeruginosa PAO1 (native secretion, culture supernatant)
T2 sequence (P14756 198-498): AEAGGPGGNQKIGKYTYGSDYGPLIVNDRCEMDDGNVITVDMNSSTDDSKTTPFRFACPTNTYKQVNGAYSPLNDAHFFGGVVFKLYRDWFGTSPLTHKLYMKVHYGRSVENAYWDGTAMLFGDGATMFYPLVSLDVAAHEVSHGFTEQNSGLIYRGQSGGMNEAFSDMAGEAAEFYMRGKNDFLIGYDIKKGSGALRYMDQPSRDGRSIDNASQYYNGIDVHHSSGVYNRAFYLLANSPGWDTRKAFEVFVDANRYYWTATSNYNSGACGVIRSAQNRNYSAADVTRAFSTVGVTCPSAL
From the text: Previous studies have shown that LasB cleaves the N-terminal domain of pro-IL-1β, thereby generating a mature active form of IL-1β in a manner analogous to the normal host activation mechanism involving cleavage by caspases.[16] This activity can be followed spectrophotometrically via hydrolysis of an internally quenched fluorescent peptide Sub115 (McA-HDAPVRSLN-K-Dnp), which incorporates the LasB cleavage site from pro-IL-1β. To determine whether compounds 12 and 16 were able to inhibit this activity, Sub115 hydrolysis was measured in the presence of varying concentrations of substrate and inhibitors (Figure 2B). […] These values, although still submicromolar, were higher than those determined with the Abz-AGLA-Nba hydrolysis assay, perhaps due to the different ion composition of the respective assay buffers.
The peptide HDAPVRSLN, corresponding to amino acids 115–123 of the reference human pro-IL-1β sequence (UniProt: PO1584), was labeled on the N-terminus with Mca and on the C-terminus with Lys-Dnp (CPC Scientific) to generate an internally quenched fluorescent peptide (Sub115). […] The reaction was continuously monitored using a Victor multimode plate reader (PerkinElmer) with excitation at 355 nm and emission at 450 nm, and initial kinetic velocity was calculated. Inhibitory constants (Ki) were determined (two independent replicates) using a competitive inhibitor model.

activated IL-1β = assay: Mouse P. aeruginosa lung infection model, activated IL-1β in lung homogenates; assay type: in vivo; settings: C57Bl/6 mice, 10 and 30 mg/kg IV at 1 and 4 h post-infection, 24 h; p < 0.0001
Description: To investigate if compounds 12 and 16 were able to engage the LasB target in vivo, in the context of a P. aeruginosa lung infection, and to determine the consequences of that inhibition, immunocompetent C57Bl/6 mice were infected intranasally with P. aeruginosa PAO1 and treated with two doses of inhibitors, 10 and 30 mg/kg, administered IV at 1 and 4 h post-infection (Figure 5A). A control group of PAO1-infected animals treated with vehicle and a group of animals infected with the isogenic ΔlasB strain were included in the study. Mice were euthanized 24 h post-infection and their lung homogenates assayed for activated mature IL-1β (using the IL-1 reporter assay) and bacterial numbers (by CFU enumeration).
Infection experiments were approved by the Institutional Animal Care and Use Committee of Emory University. To prepare the bacterial inoculum, P. aeruginosa PAO1 (or its ΔlasB derivative) was grown in Luria broth with shaking at physiologic (37 °C) temperature for 18 h to maximally express LasB (at late log phase). […] Active IL-1β was quantified by adding 100 μL of cell-free homogenate to IL-1β responsive HEK IL-1R-lux reporter cells. Activity was assayed by luminescence measured with D-luciferin substrate (Steady-Luc, Biotium) on a multimode reader (PerkinElmer) and expressed as relative luminescence units (RU). […] Statistics were calculated by ANOVA with a Dunnett post-test.

Compound | IC50 (MMP-1) [nM] | fraction unbound at 4 h, 10 μM [1] | Ki (purified LasB) [nM] | decrease in activated IL-1β in lung homogenates vs PAO1-infected control group (activated IL-1β)
COc1cc2sc(CNC(=O)C3(CC(=O)O)Cc4cc(F)c(F)cc4C3)nc2cc1OCCC[N+](C)(CCO)CCO [Compound 16] | > 100000 | 0.18 | 475 | up to 4 fold
COc1cc2sc(CNC(=O)C3(CC(=O)O)Cc4ccccc4C3)nc2cc1OCCC[N+](C)(C)C [Compound 12] | > 100000 | 0.24 | 704 | up to 4 fold
